Assay results published in US12590062B2, “PD-1/PD-L1 inhibitors” (Gilead Sciences, Inc., priority 2017, dated 2026).

Legend:
PD-1/PD-L1 interaction = target: T1, PD-1/PD-L1 interaction (Homo sapiens, UniProt Q9NZQ7); experiment: PD-1/PD-L1 NFAT reporter co-culture assay; format: cell-based; conditions: Jurkat PD-1 NFAT-luciferase cells co-cultured with aAPC-PD-L1 CHO cells, 6 hrs at 37° C.; read-out: EC50 NFAT Luciferase
T1 construct: expressed in transfected cells; host or cells: CHO cells (aAPC-PD-L1) co-cultured with Jurkat cells overexpressing PD-1 and an NFAT-luciferase reporter
Summary of the method: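 Jurkat cells overexpressing PD-1 with NFAT-driven luciferase were mixed with compound in RPMI 1640/2% FBS and seeded onto overnight-plated CHO aAPC-PD-L1 cells expressing surface anti-CD3 and PD-L1. Co-culture ran 6 h at 37 °C; luminescence read with ONE-Glo; EC50 from four-parameter fit.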

PD-L1 = target: T2, PD-L1 (Homo sapiens, UniProt Q9NZQ7); experiment: PD-L1/PD-L1 dimerization biochemical protein-protein interaction assay (ALPHA); format: binding; conditions: compound-induced PD-L1 dimerization, head prints '1 nM' (0.5 nM His-tagged PD-L1 and 0.5 nM FLAG-tagged PD-L1), read-out: AC50 PDL1 Dimer Alpha 1 nM
T2 construct: determine if they can specifically dimerize the extracellular domains of PD-L1
Description: PD-L1/PD-L1 Dimerization Biochemical Protein-Protein Interaction Assay:
Compounds were tested in biochemical protein-protein interaction assays to determine if they can specifically dimerize the extracellular domains of PD-L1. Dimerization of the proteins (His-tagged PD-L1 and FLAG-tagged PD-L1) is measured using a bead based Amplified Luminescent Proximity Homogeneous Assay (ALPHA) platform. […] Assays are performed in 25 mM Hepes (pH 7.4), 150 mM NaCl, 3.4 mM EDTA, 0.005% Tween 20, and 0.01% BSA. Final protein concentration in the assays were 0.5 nM (His tagged PD-L) and 0.5 nM (FLAG tagged PD-L1). After an assay reaction time of 2 hours at 25° C., 20 μg/mL (final assay concentration) ALPHA assay acceptor beads (anti-His coated) were added and incubated for 60 minutes at 25° C. Binding was measured following a final 60 minute incubation with 40 μg/mL (final assay concentration) ALPHA assay donor beads (anti-FLAG coated). AC50 values were calculated from the fit of the dose-response curves to a four-parameter equation (Table 3).

PD-1/PD-L1 = PD-1/PD-L1 (Homo sapiens, UniProt Q9NZQ7); experiment: PD-1/PD-L1 biochemical protein-protein interaction assay (ALPHA); format: binding; conditions: 0.3 nM His tagged PD-L1, 2.5 nM biotinylated Fc-PD-1, 60 minutes at 25° C., read-out: IC50 PD-L1-PD-1 Alpha IC50-mono PD-L1-fcP-D1
Summary of the method: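 His-PD-L1 ECD 0.3 nM + biotin-Fc-PD-1 2.5 nM (final), 25 mM Hepes pH 7.4, 150 mM NaCl, 3.4 mM EDTA; 60 min, 25° C; anti-His acceptor/streptavidin donor ALPHA beads; decreased signal = blocked binding; 4-parameter IC50.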

T1 sequence (Q9NZQ7 19-290): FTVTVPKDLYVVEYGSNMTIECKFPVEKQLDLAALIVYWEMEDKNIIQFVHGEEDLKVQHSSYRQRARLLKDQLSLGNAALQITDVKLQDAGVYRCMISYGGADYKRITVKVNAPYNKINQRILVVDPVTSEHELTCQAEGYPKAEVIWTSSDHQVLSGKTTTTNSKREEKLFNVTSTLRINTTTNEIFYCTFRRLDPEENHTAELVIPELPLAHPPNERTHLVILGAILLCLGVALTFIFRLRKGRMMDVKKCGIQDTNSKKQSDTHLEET
PD-1/PD-L1, sequence (Q9NZQ7 19-238 limits assumed): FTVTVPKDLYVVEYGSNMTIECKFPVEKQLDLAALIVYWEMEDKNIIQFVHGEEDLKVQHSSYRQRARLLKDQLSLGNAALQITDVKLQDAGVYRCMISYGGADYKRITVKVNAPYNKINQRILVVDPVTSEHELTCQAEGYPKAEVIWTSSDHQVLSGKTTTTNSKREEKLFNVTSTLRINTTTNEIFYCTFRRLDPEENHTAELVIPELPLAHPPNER
T2 sequence (Q9NZQ7 19-238 limits assumed): as above
T2 sequence (Q9NZQ7 19-238 limits assumed): as above

Row | Compound | EC50 (PD-1/PD-L1 interaction) [nM] | AC50 (PD-L1) [nM] | IC50 (PD-1/PD-L1) [nM]
1 | Cc1c(COc2nc(OCCCC#N)c(CNC[C@@H](O)CC(=O)O)cc2Br)cccc1-c1cccc(COc2nc(OCCCC#N)c(CNC[C@@H](O)CC(=O)O)cc2Br)c1C [Example 144, (3S,3′S)-4,4′-((((((2,2′-dimethyl-[1,1′-biphenyl]-3,3′-diyl)bis(methylene))bis(oxy))bis(5-bromo-2-(3-cyanopropoxy)pyridine-6,3-diyl))bis(methylene))bis(azanediyl))bis(3-hydroxybutanoic acid)] | 201 | 206 | –
2 | COc1nc(OCc2cccc(-c3cccc(COc4nc(OC)c(CNC[C@H](O)CC(=O)O)cc4Br)c3Cl)c2Cl)c(Br)cc1CNC[C@H](O)CC(=O)O [Example 191, (3R,3′R)-4,4′-((((((2,2′-Dichloro-[1,1′-biphenyl]-3,3′-diyl)bis(methylene))bis(oxy))bis(5-bromo-2-methoxypyridine-6,3-diyl))bis(methylene))bis(azanediyl))bis(3-hydroxybutanoic acid)] | 60 | ≥ 10000 | –
3 | N#Cc1cncc(COc2nc(OCc3cccc(-c4cccc(COc5nc(OCc6cncc(C#N)c6)c(CNC[C@@H](O)CC(=O)O)cc5Br)c4Cl)c3Cl)c(Br)cc2CNC[C@@H](O)CC(=O)O)c1 [Example 193, (3S,3′S)-4,4′-((((((2,2′-Dichloro-[1,1′-biphenyl]-3,3′-diyl)bis(methylene))bis(oxy))bis(5-bromo-2-((5-cyanopyridin-3-yl)methoxy)pyridine-6,3-diyl))bis(methylene))bis(azanediyl))bis(3-hydroxybutanoic acid)] | 99 | 132 | –
4 | Cc1c(COc2nc(OCc3cncc(C#N)c3)c(CNC[C@@H](O)CC(=O)O)cc2Br)cccc1-c1cccc(-c2ccc(OCCNC[C@@H](O)CC(=O)O)cc2)c1C [Example 385, (S)-4-((2-((3″-(((3-bromo-5-((((S)-3-carboxy-2-hydroxypropyl)amino)methyl)-6-((5-cyanopyridin-3-yl)methoxy)pyridin-2-yl)oxy)methyl)-2′,2″-dimethyl-[1,1′:3′,1″-terphenyl]-4-yl)oxy)ethyl)amino)-3-hydroxybutanoic acid] | 84 | – | 0.051
5 | Cc1c(COc2cc(OCc3cncc(C#N)c3)c(CNC[C@@H](O)CC(=O)O)cc2Cl)cccc1-c1cccc(-n2cc(CN)nn2)c1C [Example 386, (S)-4-((4-((3′-(4-(aminomethyl)-1H-1,2,3-triazol-1-yl)-2,2′-dimethyl-[1,1′-biphenyl]-3-yl)methoxy)-5-chloro-2-((5-cyanopyridin-3-yl)methoxy)benzyl)amino)-3-hydroxybutanoic acid] | 868 | – | 0.302
6 | Cc1c(COc2cc(OCc3cncc(C#N)c3)c(CNC[C@@H](O)CC(=O)O)cc2Cl)cccc1-c1cccc(-c2cn(CCCNC[C@@H](O)CC(=O)O)nn2)c1C [Example 387, (S)-4-((3-(4-(3′-((4-((((S)-3-carboxy-2-hydroxypropyl)amino)methyl)-2-chloro-5-((5-cyanopyridin-3-yl)methoxy)phenoxy)methyl)-2,2′-dimethyl-[1,1′-biphenyl]-3-yl)-1H-1,2,3-triazol-1-yl)propyl)amino)-3-hydroxybutanoic acid] | 362 | – | 0.051
7 | Cc1c(COc2cc(OCc3cncc(C#N)c3)c(CNC[C@@H](O)CC(=O)O)cc2Cl)cccc1-c1cccc(-c2ccn3cc(CNC[C@@H](O)CC(=O)O)nc3c2)c1C [Example 397, (S)-4-(((7-(3′-((4-((((S)-3-carboxy-2-hydroxypropyl)amino)methyl)-2-chloro-5-((5-cyanopyridin-3-yl)methoxy)phenoxy)methyl)-2,2′-dimethyl-[1,1′-biphenyl]-3-yl)imidazo[1,2-a]pyridin-2-yl)methyl)amino)-3-hydroxybutanoic acid] | 709 | – | 0.064
8 | COc1cc(OCc2cccc(-c3cccc(COc4nc(OC)c(CNC5(C(=O)O)CCC5)cc4Cl)c3C)c2C)c(Cl)cc1CNC1(C(=O)O)CCC1 [Example 486] | 112 | – | 0.146
9 | Cc1c(COc2nc(OCc3cc(C#N)cc(C#N)c3)c(CNC[C@@H](O)CC(=O)O)cc2Br)cccc1-c1cccc(-c2ccc(OCCNC[C@@H](O)CC(=O)O)cc2)c1C [Example 515] | 95 | – | 0.203
10 | Cc1c(COc2cc(OCc3cncc(C#N)c3)c(CN[C@@](C)(CO)C(=O)O)cc2Cl)cccc1-c1cccc(-c2ccc(S(N)(=O)=O)cc2)c1C [Example 564] | 80 | – | 0.293
11 | COC1CN(C2CCc3cc(-c4cccc(-c5cccc(COc6cc(OCc7cncc(C#N)c7)c(CN[C@@](C)(CO)C(=O)O)cc6Cl)c5C)c4C)ccc32)C1 (some centres unmarked) [Example 585] | 182 | – | 0.098
12 | COc1nc(OCc2cccc(-c3cccc(COc4nc(OCc5cncc(C#N)c5)c(CNC[C@@H](O)CC(=O)O)cc4Br)c3C)c2C)c(Br)cc1CNC[C@@H](O)CC(=O)O [Example 586] | 181 | – | 0.836
13 | COc1nc(O[C@@H]2c3cccc(-c4cccc5c4C[C@@H](F)[C@@H]5Oc4nc(OC)c(CNC[C@@H](O)CC(=O)O)cc4Cl)c3C[C@H]2F)c(Cl)cc1CNC[C@@H](O)CC(=O)O [Example 639, (3S,3′S)-4,4′-((((((1R,1′R,2R,2′R)-2,2′-difluoro-2,2′,3,3′-tetrahydro-1H,1′H-[4,4′-biindene]-1,1′-diyl)bis(oxy))bis(5-chloro-2-methoxypyridine-6,3-diyl))bis(methylene))bis(azanediyl))bis(3-hydroxybutanoic acid)] | 942 | – | 1.85
14 | COc1nc(O[C@@H]2c3cccc(-c4cccc5c4C[C@H](F)[C@@H]5Oc4nc(OC)c(CNC[C@@H](O)CC(=O)O)cc4Cl)c3C[C@@H]2F)c(Cl)cc1CNC[C@@H](O)CC(=O)O [Example 640, (3S,3′S)-4,4′-((((((1R,1′R,2S,2′S)-2,2′-difluoro-2,2′,3,3′-tetrahydro-1H,1′H-[4,4′-biindene]-1,1′-diyl)bis(oxy))bis(5-chloro-2-methoxypyridine-6,3-diyl))bis(methylene))bis(azanediyl))bis(3-hydroxybutanoic acid)] | ≥ 50000 | – | 1.09
15 | Cc1c(-c2ccc(OCCNC[C@@H](O)CC(=O)O)cc2)cccc1-c1cccc2c1CC[C@@H]2Oc1nc(OCc2cncc(C#N)c2)c(CNC[C@@H](O)CC(=O)O)cc1Cl [Example 675] | 95 | – | 0.064
16 | Cc1c(-c2ccc(OCCNC[C@@H](O)CC(=O)O)cc2)cccc1-c1cccc2c1CC[C@@H]2Oc1nc(OCc2cncc(C#N)c2)c(CNC[C@@H](O)CC(=O)O)cc1Br [Example 676] | 62 | – | 0.064
17 | O=C(O)C[C@H](O)CNCc1ccc(OC2CCc3c(-c4cccc5c4CCC5Oc4ccc(CNC[C@@H](O)CC(=O)O)cc4)cccc32)cc1 (some centres unmarked) [Example 681] | ≥ 50000 | – | 8.91
18 | CS(=O)(=O)c1cncc(COc2nc(O[C@H]3CCc4c(-c5cccc6c5CC[C@@H]6Oc5nc(OCc6cncc(S(C)(=O)=O)c6)c(CN6C[C@@H](O)CC6=O)cc5Cl)cccc43)c(Cl)cc2CNC[C@@H](O)CC(=O)O)c1 [Example 693] | 120 | – | 0.585
19 | CS(=O)(=O)c1cncc(COc2nc(O[C@H]3CCc4c(-c5cccc6c5CC[C@@H]6Oc5nc(OCc6cncc(S(C)(=O)=O)c6)c(CNC[C@@H](O)CC(=O)O)cc5Cl)cccc43)c(Cl)cc2CNC[C@@H](O)CC(=O)O)c1 [Example 694] | 96 | – | 0.051
20 | Cc1c(-c2ccc(OCCNC[C@@H](O)CC(=O)O)cc2)cccc1-c1cccc2c1CC[C@@H]2Oc1nc(OCc2cc(C#N)cc(C#N)c2)c(CNC[C@@H](O)CC(=O)O)cc1Br [Example 753] | 35 | – | 0.064
21 | CNC(=O)COc1nc(O[C@H]2CCc3c(-c4cccc(-c5ccc(OCCNC[C@@H](O)CC(=O)O)cc5)c4C)cccc32)c(Br)cc1CNC[C@@H](O)CC(=O)O [Example 754] | 434 | – | 0.091
22 | CNC(=O)COc1nc(O[C@H]2CCc3c(-c4cccc(-c5ccc(OCCNC[C@@H](O)CC(=O)O)cc5)c4C)cccc32)ccc1CNC[C@@H](O)CC(=O)O [Example 756] | 6590 | – | 1.16
